According to patent publication US20230322761A1, “DEGRADATION OF BRUTON'S TYROSINE KINASE (BTK) BY CONJUGATION OF BTK INHIBITORS WITH E3 LIGASE LIGAND AND METHODS OF USE” (BEIGENE, LTD., priority 2020, published 2023):

Target: T1, BTK (Homo sapiens, UniProt Q06187)
T1 construct: endogenous in cells; host or cells: TMD-8 cells
Assay: BTK degradation in TMD-8 cells, HTRF assay after 6 h treatment
Format: cell-based
Conditions: IC50 (DC50) of BTK degradation
Procedure, shortened: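 Remaining BTK was quantified by HTRF in lysates of TMD-8 cells after 6 h exposure to an 8-point, 6-fold compound series (500× stocks in DMSO starting at 1 mM; 0.2% DMSO). Lysis 30 min, antibodies overnight at room temperature, ratio read at 665/620 nm; DC50 fitted with a four-parameter logistic equation.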

T1 sequence (Q06187 whole entry): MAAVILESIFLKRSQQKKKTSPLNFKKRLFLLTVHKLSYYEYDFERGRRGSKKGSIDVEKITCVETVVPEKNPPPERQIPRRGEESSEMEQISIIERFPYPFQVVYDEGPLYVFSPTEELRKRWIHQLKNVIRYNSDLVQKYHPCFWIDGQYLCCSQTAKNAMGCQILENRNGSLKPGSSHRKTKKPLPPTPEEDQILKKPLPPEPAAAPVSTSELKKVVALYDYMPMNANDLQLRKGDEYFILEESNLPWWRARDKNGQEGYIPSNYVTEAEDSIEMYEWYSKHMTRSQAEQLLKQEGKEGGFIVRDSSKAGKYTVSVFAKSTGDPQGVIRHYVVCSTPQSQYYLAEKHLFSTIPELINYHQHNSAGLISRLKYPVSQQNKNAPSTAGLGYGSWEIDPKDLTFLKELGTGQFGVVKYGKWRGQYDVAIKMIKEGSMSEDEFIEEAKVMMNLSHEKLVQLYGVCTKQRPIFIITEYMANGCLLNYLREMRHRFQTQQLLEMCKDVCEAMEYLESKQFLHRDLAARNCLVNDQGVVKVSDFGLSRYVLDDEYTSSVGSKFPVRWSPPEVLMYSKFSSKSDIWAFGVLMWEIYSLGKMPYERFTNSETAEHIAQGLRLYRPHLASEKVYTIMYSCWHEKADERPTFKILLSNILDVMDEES

SMILES | DC50 [nM]
Cc1cc(-c2n[nH]c3ncc(-c4ccc(CCN5CCC(c6ccc([C@@H]7CCC(=O)NC7=O)cc6)CC5)cc4)cc23)ccc1CNC(=O)c1nc(C(C)(C)C)no1 [Example 88, (S)-3-(tert-butyl)-N-(4-(5-(4-(2-(4-(4-(2,6-dioxopiperidin-3-yl)phenyl)piperidin-1-yl)ethyl)phenyl)-1H-pyrazolo[3,4-b]pyridin-3-yl)-2-methylbenzyl)-1,2,4-oxadiazole-5-carboxamide] | 9.41
Cc1cc(-c2n[nH]c3ncc(-c4ccc(CCN5CCC(c6ccc([C@H]7CCC(=O)NC7=O)cc6)CC5)cc4)cc23)ccc1CNC(=O)c1nc(C(C)(C)C)no1 [Example 89, (R)-3-(tert-butyl)-N-(4-(5-(4-(2-(4-(4-(2,6-dioxopiperidin-3-yl)phenyl)piperidin-1-yl)ethyl)phenyl)-1H-pyrazolo[3,4-b]pyridin-3-yl)-2-methylbenzyl)-1,2,4-oxadiazole-5-carboxamide] | 0.635
Cc1cc(-c2n[nH]c3ncc(-c4ccc(N5CCN(CCC6CCN(c7ccc([C@H]8CCC(=O)NC8=O)cc7)CC6)CC5)cc4)cc23)ccc1CNC(=O)c1noc(C(C)(C)C)n1 [Example 91, (R)-5-(tert-butyl)-N-(4-(5-(4-(4-(2-(1-(4-(2,6-dioxopiperidin-3-yl)phenyl)piperidin-4-yl)ethyl)piperazin-1-yl)phenyl)-1H-pyrazolo[3,4-b]pyridin-3-yl)-2-methylbenzyl)-1,2,4-oxadiazole-3-carboxamide] | 1.97
Cc1cc(-c2n[nH]c3ncc(-c4ccc(N5CCN(CCC6CCN(c7ccc([C@@H]8CCC(=O)NC8=O)cc7)CC6)CC5)cc4)cc23)ccc1CNC(=O)c1noc(C(C)(C)C)n1 [Example 92, (S)-5-(tert-butyl)-N-(4-(5-(4-(4-(2-(1-(4-(2,6-dioxopiperidin-3-yl)phenyl)piperidin-4-yl)ethyl)piperazin-1-yl)phenyl)-1H-pyrazolo[3,4-b]pyridin-3-yl)-2-methylbenzyl)-1,2,4-oxadiazole-3-carboxamide] | 7.24
Cc1cc(-c2n[nH]c3ncc(-c4ccc(N5CCN(CC6CCN(c7ccc(N8CCC(=O)NC8=O)cc7)CC6)CC5)cc4)cc23)ccc1CNC(=O)c1csc(C(C)(C)C)n1 [Example 93, 2-(tert-butyl)-N-(4-(5-(4-(4-((1-(4-(2,4-dioxotetrahydropyrimidin-1(2H)-yl)phenyl)piperidin-4-yl)methyl)piperazin-1-yl)phenyl)-1H-pyrazolo[3,4-b]pyridin-3-yl)-2-methylbenzyl)thiazole-4-carboxamide] | 28.8
Cc1cc(-c2n[nH]c3ncc(-c4ccc(N5CCN(CC6CCN(c7ccc(N8CCC(=O)NC8=O)cc7)CC6)CC5)cc4)cc23)ccc1CNC(=O)c1cnc(C(C)(C)C)s1 [Example 94, 2-(tert-butyl)-N-(4-(5-(4-(4-((1-(4-(2,4-dioxotetrahydropyrimidin-1(2H)-yl)phenyl)piperidin-4-yl)methyl)piperazin-1-yl)phenyl)-1H-pyrazolo[3,4-b]pyridin-3-yl)-2-methylbenzyl)thiazole-5-carboxamide] | 13.1
Cc1c(CNC(=O)c2noc(C(C)(C)C)n2)ccc(-c2n[nH]c3ncc(-c4ccc(N5CCN(CC6CCN(c7ccc(N8CCC(=O)NC8=O)cc7)CC6)CC5)cc4)cc23)c1F [Example 99, 5-(tert-butyl)-N-(4-(5-(4-(4-((1-(4-(2,4-dioxotetrahydropyrimidin-1(2H)-yl)phenyl)piperidin-4-yl)methyl)piperazin-1-yl)phenyl)-1H-pyrazolo[3,4-b]pyridin-3-yl)-3-fluoro-2-methylbenzyl)-1,2,4-oxadiazole-3-carboxamide] | 17.8
Cc1cc(-c2n[nH]c3ncc(-c4ccc(N5CCN(CC6CCN(c7ccc(N8CCC(=O)NC8=O)cc7)CC6)CC5)cc4)cc23)c(F)cc1CNC(=O)c1noc(C(C)(C)C)n1 [Example 100, 5-(tert-butyl)-N-(4-(5-(4-(4-((1-(4-(2,4-dioxotetrahydropyrimidin-1(2H)-yl)phenyl)piperidin-4-yl)methyl)piperazin-1-yl)phenyl)-1H-pyrazolo[3,4-b]pyridin-3-yl)-5-fluoro-2-methylbenzyl)-1,2,4-oxadiazole-3-carboxamide] | 10.2
Cc1cc(-c2n[nH]c3ncc(-c4ccc(N5CCN(CCc6ccc(C7CCC(=O)NC7=O)cn6)CC5)cc4)cc23)ccc1[C@@H](C)NC(=O)c1noc(C(C)(C)C)n1 (stereo partly drawn) [Example 101, 5-(tert-butyl)-N-((1R)-1-(4-(5-(4-(4-(2-(5-(2,6-dioxopiperidin-3-yl)pyridin-2-yl)ethyl)piperazin-1-yl)phenyl)-1H-pyrazolo[3,4-b]pyridin-3-yl)-2-methylphenyl)ethyl)-1,2,4-oxadiazole-3-carboxamide] | 0.959
Cc1cc(-c2n[nH]c3ncc(-c4ccc(N5CCN(CCc6ccc(C7CCC(=O)NC7=O)cc6)CC5)cn4)cc23)ccc1CNC(=O)c1noc(C(C)(C)C)n1 (stereo not shown) [Example 103, 5-(tert-butyl)-N-(4-(5-(5-(4-(4-(2,6-dioxopiperidin-3-yl)phenethyl)piperazin-1-yl)pyridin-2-yl)-1H-pyrazolo[3,4-b]pyridin-3-yl)-2-methylbenzyl)-1,2,4-oxadiazole-3-carboxamide] | 1.31
Cc1cc(-c2n[nH]c3ncc(-c4ccc(N5CCN(CCc6ccc(C7CCC(=O)NC7=O)cc6)CC5)cc4)cc23)ccc1CNC(=O)c1noc(C(C)(C)C)n1 (stereo not shown) [Example 107, 5-(tert-butyl)-N-(4-(5-(4-(4-(4-(2,6-dioxopiperidin-3-yl)phenethyl)piperazin-1-yl)phenyl)-1H-pyrazolo[3,4-b]pyridin-3-yl)-2-methylbenzyl)-1,2,4-oxadiazole-3-carboxamide] | 1.89

Results, then the molecule that gave them:

DC50 [nM] | SMILES
> 2000 | Cc1cc(-c2n[nH]c3ncc(-c4ccc(N5CCN(CC6CCN(c7cc(F)ccc7N7CCC(=O)NC7=O)CC6)CC5)cc4)cc23)ccc1[C@@H](C)NC(=O)c1noc(C(C)(C)C)n1 [Example 90, (R)-5-(tert-butyl)-N-(1-(4-(5-(4-(4-((1-(2-(2,4-dioxotetrahydropyrimidin-1(2H)-yl)-5-fluorophenyl)piperidin-4-yl)methyl)piperazin-1-yl)phenyl)-1H-pyrazolo[3,4-b]pyridin-3-yl)-2-methylphenyl)ethyl)-1,2,4-oxadiazole-3-carboxamide]
71.4 | Cc1cc(-c2n[nH]c3ncc(-c4cccc(N5CCN(CC6CCN(c7ccc(N8CCC(=O)NC8=O)cc7)CC6)CC5)c4)cc23)ccc1[C@@H](C)NC(=O)c1noc(C(C)(C)C)n1 [Example 95, (R)-5-(tert-butyl)-N-(1-(4-(5-(3-(4-((1-(4-(2,4-dioxotetrahydropyrimidin-1(2H)-yl)phenyl)piperidin-4-yl)methyl)piperazin-1-yl)phenyl)-1H-pyrazolo[3,4-b]pyridin-3-yl)-2-methylphenyl)ethyl)-1,2,4-oxadiazole-3-carboxamide]
> 2000 | Cc1cc(-c2n[nH]c3ncc(-c4ccc(N5CCN(CC6CCN(c7ccc(N8CCC(=O)NC8=O)cc7)CC6)CC5)cc4)cc23)ccc1[C@@H](C)NC(=O)c1ccc(C(C)(C)O)cc1F [Example 96, (R)—N-(1-(4-(5-(4-(4-((1-(4-(2,4-dioxotetrahydropyrimidin-1(2H)-yl)phenyl)piperidin-4-yl)methyl)piperazin-1-yl)phenyl)-1H-pyrazolo[3,4-b]pyridin-3-yl)-2-methylphenyl)ethyl)-2-fluoro-4-(2-hydroxypropan-2-yl)benzamide]
5.8 | Cc1cc(-c2n[nH]c3ncc(-c4ccc(N5CCN(CC6CCN(c7ccc(N8CCC(=O)NC8=O)cc7)CC6)CC5)c(F)c4)cc23)ccc1[C@@H](C)NC(=O)c1noc(C(C)(C)C)n1 [Example 97, (R)-5-(tert-butyl)-N-(1-(4-(5-(4-(4-((1-(4-(2,4-dioxotetrahydropyrimidin-1(2H)-yl)phenyl)piperidin-4-yl)methyl)piperazin-1-yl)-3-fluorophenyl)-1H-pyrazolo[3,4-b]pyridin-3-yl)-2-methylphenyl)ethyl)-1,2,4-oxadiazole-3-carboxamide]
2.68 | Cc1cc(-c2n[nH]c3ncc(-c4ccc(N5CCN(CC6CCN(c7ccc(N8CCC(=O)NC8=O)c(C)c7)CC6)CC5)cc4)cc23)ccc1[C@@H](C)NC(=O)c1nc(C(C)(C)C)no1 [Example 98, (R)-3-(tert-butyl)-N-(1-(4-(5-(4-(4-((1-(4-(2,4-dioxotetrahydropyrimidin-1(2H)-yl)-3-methylphenyl)piperidin-4-yl)methyl)piperazin-1-yl)phenyl)-1H-pyrazolo[3,4-b]pyridin-3-yl)-2-methylphenyl)ethyl)-1,2,4-oxadiazole-5-carboxamide]
9.72 | Cc1cc(-c2n[nH]c3ncc(-c4ccc(N5CCN(CC6CCN(c7ccc(N8CCC(=O)NC8=O)cc7)CC6)CC5)c(C)c4)cc23)ccc1[C@@H](C)NC(=O)c1noc(C(C)(C)C)n1 [Example 102, (R)-5-(tert-butyl)-N-(1-(4-(5-(4-(4-((1-(4-(2,4-dioxotetrahydropyrimidin-1(2H)-yl)phenyl)piperidin-4-yl)methyl)piperazin-1-yl)-3-methylphenyl)-1H-pyrazolo[3,4-b]pyridin-3-yl)-2-methylphenyl)ethyl)-1,2,4-oxadiazole-3-carboxamide]
> 2000 | Cc1cc(-c2n[nH]c3ncc(-c4ccc(N5CCN(CCC6CCN(c7ccc(N8CCC(=O)NC8=O)c(Cl)c7)CC6)CC5)cc4)cc23)ccc1[C@@H](C)NC(=O)c1ccc(C(C)(C)O)cc1F [Example 104, (R)—N-(1-(4-(5-(4-(4-(2-(1-(3-chloro-4-(2,4-dioxotetrahydropyrimidin-1(2H)-yl)phenyl)piperidin-4-yl)ethyl)piperazin-1-yl)phenyl)-1H-pyrazolo[3,4-b]pyridin-3-yl)-2-methylphenyl)ethyl)-2-fluoro-4-(2-hydroxypropan-2-yl)benzamide]
3.55 | Cc1cc(-c2n[nH]c3ncc(-c4ccc(C5CCN(CC6CCN(c7ccc(N8CCC(=O)NC8=O)c(C)c7)CC6)CC5)nc4)cc23)ccc1CNC(=O)c1nc(C(C)(C)C)no1 [Example 105, 3-(tert-butyl)-N-(4-(5-(6-(1-((1-(4-(2,4-dioxotetrahydropyrimidin-1(2H)-yl)-3-methylphenyl)piperidin-4-yl)methyl)piperidin-4-yl)pyridin-3-yl)-1H-pyrazolo[3,4-b]pyridin-3-yl)-2-methylbenzyl)-1,2,4-oxadiazole-5-carboxamide]
